Measured values reported in PubChem BioAssay AID2738 (Broad Institute, 2010).
Activity calls are given as the source filed them.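 How the source made its calls: active means IC50 at or below ten times the top tested concentration; inconclusive means flat fit at 30 to 70% inhibition, or invalid poor fit; inactive means IC50 beyond ten times the top tested dose.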

The molecules below were run against POS-1 (Caenorhabditis elegans) binding to mex-3 RNA (assay: disruptors of C. elegans POS-1 RNA interaction – biochemical, fluorescence polarization, up to 135 µM, dose response (AID 2738)). Settings: POS-1-MBP / FITC mex-3 RNA.

| SMILES | IC50 |
| --- | --- |
| O=C(NNC(=O)c1ccccc1[N+](=O)[O-])c1csc(N2CCOCC2)n1 | 119 µM |
| CCN(CC)CCCNC(=O)CCC(=O)NNc1nc2ccccc2c2nc(C)nn12 | 2.2 µM |
| CCOC(=O)c1cc(CC)sc1/N=C/c1c(O)[nH]c(=S)[nH]c1=O | 45.5 µM |
| Cn1ncc2c(NNC(=O)Cc3ccccc3)ncnc21 | 127 µM |
| O=c1c(O)cccc2cc(O)c(O)c(O)c12 | 11.9 µM |
| CCc1ccccc1N1C(=O)/C(=C\c2ccc(N3CCN(C)CC3)o2)C(=O)NC1=S | > 135 µM (inactive) |
| CC1=C(C(=O)OCc2ccccc2)C(c2ccccc2[N+](=O)[O-])NC(=O)N1C (stereo not given) | 25.6 µM |
| CCN(CC)c1ccc(/C=C2\C(=O)NC(=S)N(c3ccc(OC)cc3OC)C2=O)o1 | > 135 µM (inactive) |
| Cc1ncc(CO)c(/C=N/NC(=O)c2cc(Br)ccc2O)c1O | 51.2 µM |
| Cc1ccc(N2C(=O)NC(=O)/C(=C\c3cc(C)n(-c4ccc(C(=O)O)cc4)c3C)C2=O)cc1 | > 135 µM (inactive) |
| COCCCNC(=O)CCC(=O)NNc1nc2ccccc2c2nc(C)nn12 | 8.56 µM |
| CCCCN(C)C(=O)CCC(=O)NNc1nc2ccccc2c2nc(C)nn12 | 62.3 µM |
| Cc1nc2ccccc2c(=O)n1/N=C/c1ccc(O)c(O)c1O | 16.9 µM |
| ON=C1/C(=N\O)CC2(C/C1=N/O)OCCO2 | > 135 µM (inactive) |
| N=c1c(C(=O)NC2CCCCC2)cc2c(=O)n3ccccc3nc2n1Cc1cccnc1 | > 350 µM (inactive) |
| O=CN/N=C/c1c(O)ccc2ccccc12 | 22 µM |
| CCN(CC)c1ccc(/C=C2\C(=O)NC(=S)N(C)C2=O)o1 | > 135 µM (inactive) |
| COc1ccc(-c2cn[nH]c2-c2ccc(OCC(=O)NN)cc2O)cc1OC | > 135 µM (inactive) |
| Oc1ccc(CCNc2c3ccccc3nc3ccccc23)cc1O | > 135 µM (inactive) |
| NC(CO)C(=O)NNCc1ccc(O)c(O)c1O (stereo not given) | > 135 µM (inactive) |
